Data as given in patent publication US7109338B2, “1,2-disubstituted 1,4-dihydro-4-oxoquinoline compounds” (priority 1999, dated 2006).
Converted amounts (≈) assume the structure as drawn.

Experiments:
HRV29 (5582) = assay: Anti-rhinovirus spectrum (MTT), HRV29; format: cell-based, human rhinovirus; set-up: Anti-Rhinovirus activity, HRV29: unit not given here; details: HRV29
HRV31 (41F) = assay: Anti-rhinovirus spectrum (MTT), HRV31; format: cell-based, human rhinovirus; set-up: Anti-Rhinovirus activity, HRV31: unit not given here; details: HRV31
HRV8(MRH) = assay: Anti-rhinovirus spectrum (MTT), HRV8; format: cell-based, human rhinovirus; set-up: Anti-Rhinovirus activity, HRV8: unit not given here; details: HRV8
HRV13 (353) = assay: Anti-rhinovirus spectrum (MTT), HRV13; format: cell-based, human rhinovirus; set-up: Anti-Rhinovirus activity, HRV13: unit not given here; details: HRV13
[1] = tested on: coxsackievirus type A7 (CA7); assay: In vitro anti-picornavirus activity (MTT), CA7; format: cell-based; details: HeLa-S3 cells, MTT method, 37° C.; for IC50: Coxsackievirus
HRV3(FEB) = assay: Anti-rhinovirus spectrum (MTT), HRV3; format: cell-based, human rhinovirus; set-up: Anti-Rhinovirus activity, HRV3: unit not given here; details: HRV3
HRV41 (56110) = assay: Anti-rhinovirus spectrum (MTT), HRV41; format: cell-based, human rhinovirus; set-up: Anti-Rhinovirus activity, HRV41: unit not given here; details: HRV41
HRV1A (E28) = assay: Anti-rhinovirus activity (MTT), HRV1A; format: cell-based, human rhinovirus; set-up: Anti-Rhinovirus activity, HRV1A: unit not given here; details: for IC50: Human rhinovirus sp., HeLa, read-out: IC50 HRV 1A
HeLa-S3 cells = assay: Cytotoxicity (MTT, without virus), HeLa-S3; details: HeLa-S3, no virus, incubated for 4 days
HRV50(A2#58) = assay: Anti-rhinovirus spectrum (MTT), HRV50; format: cell-based, human rhinovirus; set-up: Anti-Rhinovirus activity, HRV50: unit not given here; details: HRV50
HRV21 (47) = assay: Anti-rhinovirus spectrum (MTT), HRV21; format: cell-based, human rhinovirus; set-up: Anti-Rhinovirus activity, HRV21: unit not given here; details: HRV21
HRV61 (6669-CV39) = assay: Anti-rhinovirus spectrum (MTT), HRV61; format: cell-based, human rhinovirus; set-up: Anti-Rhinovirus activity, HRV61: unit not given here; details: HRV61
HeLa (Ohio strain)cells = assay: Cytotoxicity (MTT, without virus), HeLa(Ohio); details: HeLa(Ohio), no virus, incubated for 4 days
HRV 89 (41617-Gallo) = assay: Anti-rhinovirus activity (MTT), HRV89; format: cell-based, human rhinovirus; set-up: Anti-Rhinovirus activity, HRV89: unit not given here; details: for IC50: Human rhinovirus sp., read-out: IC50 HRV89
HRV36 (342H) = assay: Anti-rhinovirus spectrum (MTT), HRV36; format: cell-based, human rhinovirus; set-up: Anti-Rhinovirus activity, HRV36: unit not given here; details: HRV36
[2] = tested on: coxsackievirus type B4 (CB4,JVB); assay: In vitro anti-picornavirus activity (MTT), CB4; format: cell-based; details: HeLa cells, MTT method, 37° C.; for IC50: Coxsackievirus
[3] = tested on: Poliovirus type 1 (Polio 1, Sabin); assay: microbe, parasite or virus in culture; format: cell-based; details: for IC50: Enterovirus C, HeLa S3, read-out: IC50 Polio 1
HRV16 (11757) = assay: Anti-rhinovirus spectrum (MTT), HRV16; format: cell-based, human rhinovirus; set-up: Anti-Rhinovirus activity, HRV16: unit not given here; details: HRV16
[4] = tested on: human rhinovirus type 1B (HRV 1B, B632); assay: Anti-rhinovirus activity (MTT), HRV1B; format: cell-based; set-up: Anti-Rhinovirus activity, HRV1B: unit not given here; details: for IC50: Human rhinovirus sp., read-out: IC50 HRV1B
HRV10 (204-CV14) = assay: Anti-rhinovirus spectrum (MTT), HRV10; format: cell-based, human rhinovirus; set-up: Anti-Rhinovirus activity, HRV10: unit not given here; details: HRV10
HRV33 (1200) = assay: Anti-rhinovirus spectrum (MTT), HRV33; format: cell-based, human rhinovirus; set-up: Anti-Rhinovirus activity, HRV33: unit not given here; details: HRV33
HRV32 (363) = assay: Anti-rhinovirus spectrum (MTT), HRV32; format: cell-based, human rhinovirus; set-up: Anti-Rhinovirus activity, HRV32: unit not given here; details: HRV32
HRV 2 (HGP) = assay: Anti-rhinovirus activity (MTT), HRV2; format: cell-based, human rhinovirus; set-up: Anti-Rhinovirus activity, HRV2: unit not given here; details: for IC50: Human rhinovirus sp., read-out: IC50 HRV2
HRV14 (1059) = assay: Anti-rhinovirus activity (MTT), HRV14; format: cell-based, human rhinovirus; set-up: Anti-Rhinovirus activity, HRV14: unit not given here; details: for IC50: Human rhinovirus sp., read-out: IC50 HRV 14
HRV5 = assay: Anti-rhinovirus spectrum (MTT), HRV5; format: cell-based, human rhinovirus; set-up: Anti-Rhinovirus activity, HRV5: unit not given here; details: HRV5
[5] = tested on: clinical isolate (89229T); assay: microbe, parasite or virus in culture; format: cell-based, human rhinovirus; set-up: Anti-Rhinovirus activity, Clinical isolated strain: unit not given here; details: Clinical isolated strain
HeLa cells = assay: Cytotoxicity (MTT, without virus), HeLa; details: HeLa, no virus, incubated for 4 days
HRV39 (209) = assay: Anti-rhinovirus spectrum (MTT), HRV39; format: cell-based, human rhinovirus; set-up: Anti-Rhinovirus activity, HRV39: unit not given here; details: HRV39
[6] = tested on: echovirus type 11 (Echo 11, Gregory); assay: In vitro anti-picornavirus activity (MTT), Echo 11; format: cell-based; details: HeLa-S3 cells, MTT method, 37° C.; for IC50: Enterovirus B
[7] = HeLa (Ohio strain) cells, MTT method, 33° C.
[8] = HRV89, HeLa (Ohio strain) cells, MTT method, 33° C.
[9] = HRV1B, HeLa (Ohio strain) cells, MTT method, 33° C.
[10] = HRV2, HeLa (Ohio strain) cells, MTT method, 33° C.
[11] = HRV14, HeLa (Ohio strain) cells, MTT method, 33° C.

CCOC(=O)c1c(-c2ccccc2)n(C)c2ccc(C(C)C)cc2c1=O
melting point: 164 to 165 °C

CCn1c2c(c(=O)c3cc(C(C)C)ccc31)C(NC(C)=O)c1ccccc1-2 (stereo not shown)
melting point: 215 °C (dec.)

CCn1c2c(c(=O)c3cc(C(C)C)ccc31)Cc1cc(OC)c(C)cc1-2 [Compound B20]
Anti-Rhinovirus activity, HRV29 (HRV29 (5582)): 0.44 | Anti-Rhinovirus activity, HRV31 (HRV31 (41F)): 0.18 | Anti-Rhinovirus activity, HRV8 (HRV8(MRH)): 0.29 | Anti-Rhinovirus activity, HRV13 (HRV13 (353)): 0.13 | IC50 CA7 [1]: 1.4 µg/mL (≈ 4.03 µM) | Anti-Rhinovirus activity, HRV3 (HRV3(FEB)): 0.50 | Anti-Rhinovirus activity, HRV41 (HRV41 (56110)): 0.12 | Anti-Rhinovirus activity, HRV1A (HRV1A (E28); HRV1A): >2.5 | IC50 HRV 1A (HRV1A (E28); [7]): >2.5 µg/mL | Cytotoxicity CC50 HeLa-S3 (HeLa-S3 cells): >2.5 µg/mL | Anti-Rhinovirus activity, HRV50 (HRV50(A2#58)): 0.18 | Anti-Rhinovirus activity, HRV21 (HRV21 (47)): 0.14 | Anti-Rhinovirus activity, HRV61 (HRV61 (6669-CV39)): 0.31 | Cytotoxicity CC50 HeLa(Ohio) (HeLa (Ohio strain)cells): >2.5 µg/mL | Anti-Rhinovirus activity, HRV89 (HRV 89 (41617-Gallo); HRV89): 0.18 | IC50 HRV89 (HRV 89 (41617-Gallo); [7]): 0.18 µg/mL (≈ 0.518 µM) | Anti-Rhinovirus activity, HRV36 (HRV36 (342H)): 0.20 | IC50 CB4 [2]: 0.60 µg/mL (≈ 1.73 µM) | IC50 Polio 1 [3]: 0.40 µg/mL (≈ 1.15 µM) | Anti-Rhinovirus activity, HRV16 (HRV16 (11757)): 0.44 | Anti-Rhinovirus activity, HRV1B ([4]; HRV1B): 0.23 | IC50 HRV1B [4, 7]: 0.23 µg/mL (≈ 0.662 µM) | Anti-Rhinovirus activity, HRV10 (HRV10 (204-CV14)): 0.42 | Anti-Rhinovirus activity, HRV33 (HRV33 (1200)): 0.097 | Anti-Rhinovirus activity, HRV32 (HRV32 (363)): 0.29 | Anti-Rhinovirus activity, HRV2 (HRV 2 (HGP); HRV2): 0.19 | IC50 HRV2 (HRV 2 (HGP); [7]): 0.19 µg/mL (≈ 0.547 µM) | Anti-Rhinovirus activity, HRV14 (HRV14 (1059); HRV14): 0.51 | IC50 HRV 14 (HRV14 (1059); [7]): 0.51 µg/mL (≈ 1.47 µM) | Anti-Rhinovirus activity, HRV5 (HRV5): 0.23 | Anti-Rhinovirus activity, Clinical isolated strain [5]: 0.49 | Cytotoxicity CC50 HeLa (HeLa cells): >2.5 µg/mL | Anti-Rhinovirus activity, HRV39 (HRV39 (209)): 0.35 | IC50 Echo 11 [6]: 0.28 µg/mL (≈ 0.806 µM)

CCn1c2c(c(=O)c3cc(C(C)C)ccc31)C(C)c1ccccc1-2 (stereo not shown) [Compound C40, 5-Ethyl-8-isopropyl-11-methyl-5,10-dihydro-11H-indeno[1,2-b]quinolin-10-one]
IC50 [1]: > 3.3 µg/mL | IC50 (HRV1A (E28); HRV1A): > 3.3 µg/mL | IC50 (HRV 89 (41617-Gallo); [8]): 0.56 µg/mL (≈ 1.76 µM) | IC50 [2]: 1.7 µg/mL (≈ 5.36 µM) | IC50 [3]: 0.54 µg/mL (≈ 1.7 µM) | IC50 [4, 9]: 0.51 µg/mL (≈ 1.61 µM) | IC50 (HRV 2 (HGP); [10]): 0.54 µg/mL (≈ 1.7 µM) | melting point: 152 to 154 °C | IC50 (HRV14 (1059); [11]): 1.1 µg/mL (≈ 3.47 µM) | IC50 [6]: 0.24 µg/mL (≈ 0.756 µM)

CCn1c2c(c(=O)c3cc(C(C)C)ccc31)C(O)c1ccccc1-2 (stereo not shown) [Compound C43, 5-Ethyl-8-isopropyl-11-hydroxy-5,10-dihydro-11H-indeno[1,2-b]quinolin-10-one]
IC50 [1]: > 5 µg/mL | IC50 (HRV1A (E28); HRV1A): > 5 µg/mL | IC50 (HRV 89 (41617-Gallo); [8]): 0.86 µg/mL (≈ 2.69 µM) | IC50 [2]: 2.9 µg/mL (≈ 9.08 µM) | IC50 [3]: 1.5 µg/mL (≈ 4.7 µM) | IC50 [4, 9]: 1.5 µg/mL (≈ 4.7 µM) | IC50 (HRV 2 (HGP); [10]): 0.67 µg/mL (≈ 2.1 µM) | IC50 (HRV14 (1059); [11]): 2.5 µg/mL (≈ 7.83 µM) | IC50 [6]: 0.54 µg/mL (≈ 1.69 µM)
